Assay results taken from ChEMBL document CHEMBL1667805, “Synthesis of new C5-(1-substituted-1,2,3-triazol-4 or 5-yl)-2'-deoxyuridines and their antiviral evaluation” (Eur J Med Chem, 2011).
pEC50, pIC50: −log10 of the molar value. The source made the active and inactive calls. The calls are words filed in the database; no cut-off is given here.

Legend:
[1] = system: Mammalian orthoreovirus 1; format: functional, organism-based; conditions: Vero
Sindbis virus = format: functional, organism-based; conditions: Vero
Punta Toro virus = format: functional, organism-based; conditions: Vero
Coxsackievirus B4 = format: functional, organism-based; conditions: HeLa
[2] = system: Vesicular stomatitis virus; format: functional, organism-based; conditions: HeLa
[3] = system: Human immunodeficiency virus 1; assay: Antiviral activity against HIV1 3B infected in human […] cells assessed as virus-induced CEM giant cell formation after 4 days; format: functional, organism-based
[4] = system: Human immunodeficiency virus 2; assay: Antiviral activity against HIV2 ROD infected in human […] cells assessed as virus-induced CEM giant cell formation after 4 days; format: functional, organism-based; conditions: ISOLATE ROD
[5] = system: Vesicular stomatitis virus; format: functional, organism-based; conditions: MDCK
Influenza A virus [6] = format: functional, organism-based; conditions: H1N1, MDCK
Influenza A virus [7] = format: functional, organism-based; conditions: H3N2, MDCK
Influenza B virus = format: functional, organism-based; conditions: MDCK
Human respirovirus 3 = format: functional, organism-based; conditions: Vero
L1210 = assay: cells; conditions: Mus musculus, L1210, 48 h
CCRF-CEM = assay: cells; conditions: Homo sapiens, 72 h
HeLa = assay: cells; conditions: Homo sapiens, 96 h
in vitro = conditions: human, HEL cells
Human alphaherpesvirus 1 [8] = assay: microbe, parasite or virus in culture; conditions: Human alphaherpesvirus 1, KOS, HEL
Human alphaherpesvirus 1 [9] = assay: microbe, parasite or virus in culture; conditions: Human alphaherpesvirus 1, KOS, HEL; remark: listed apart in the source
Human alphaherpesvirus 2 = assay: microbe, parasite or virus in culture; conditions: Human alphaherpesvirus 2, strain G, HEL
Human alphaherpesvirus 3 [10] = assay: microbe, parasite or virus in culture; conditions: Human alphaherpesvirus 3, strain Oka vaccine, HEL
Human alphaherpesvirus 3 [11] = assay: microbe, parasite or virus in culture; conditions: Human alphaherpesvirus 3, 07-1, HEL
Human betaherpesvirus 5 [12] = assay: microbe, parasite or virus in culture; conditions: Human betaherpesvirus 5, AD169, HEL
Human betaherpesvirus 5 [13] = assay: microbe, parasite or virus in culture; conditions: Human betaherpesvirus 5, Davis, HEL
Vaccinia virus = assay: microbe, parasite or virus in culture; conditions: Orthopoxvirus vaccinia, HEL

SMILES | inhibition [1] | inhibition (Sindbis virus) | inhibition (Punta Toro virus) | inhibition (Coxsackievirus B4) | inhibition [2] | inhibition [3] | inhibition [4] | inhibition [5] | inhibition (Influenza A virus [6]) | inhibition (Influenza A virus [7]) | inhibition (Influenza B virus) | inhibition (Human respirovirus 3) | pIC50 (L1210) | pIC50 (CCRF-CEM) | pIC50 (HeLa) | CC50 at 72 h (in vitro) [µM] | MCC at 72 h (in vitro) [µM] | pEC50 (Human alphaherpesvirus 1 [8]) | pEC50 (Human alphaherpesvirus 1 [9]) | pEC50 (Human alphaherpesvirus 2) | other results
O=c1[nH]c(=O)n([C@H]2C[C@H](O)[C@@H](CO)O2)cc1-c1cn(-c2ccccc2)nn1 | inactive | inactive | inactive | inactive | inactive | inactive | inactive | inactive | inactive | inactive | inactive | inactive | 3.69 | 4.12 | 4.25 | 270 | 270 | < 4.30 | < 4.30 | < 4.30 | pEC50 (Human alphaherpesvirus 3 [10]): < 3.57; pEC50 (Human alphaherpesvirus 3 [11]): < 3.57; pEC50 (Human betaherpesvirus 5 [12]): < 3.57; pEC50 (Human betaherpesvirus 5 [13]): < 3.57; pEC50 (Vaccinia virus): < 4.30
CCCCc1ccc(-n2cc(-c3cn([C@H]4C[C@H](O)[C@@H](CO)O4)c(=O)[nH]c3=O)nn2)cc1 | inactive | inactive | inactive | inactive | inactive | inactive | inactive | inactive | inactive | inactive | inactive | inactive | 4.82 | 4.22 | 4.64 | 147 | 230 | < 4.30 | < 4.30 | < 4.30 | pEC50 (Human alphaherpesvirus 3 [10]): < 4.30; pEC50 (Human alphaherpesvirus 3 [11]): < 4.30; pEC50 (Human betaherpesvirus 5 [12]): < 4.30; pEC50 (Human betaherpesvirus 5 [13]): < 4.30; pEC50 (Vaccinia virus): < 4.30
O=c1[nH]c(=O)n([C@H]2C[C@H](O)[C@@H](CO)O2)cc1-c1cn(-c2c(F)cccc2F)nn1 | inactive | inactive | inactive | inactive | inactive | inactive | inactive | inactive | inactive | inactive | inactive | inactive | 5.54 | 5.82 | 6.29 | 1.5 | ≥ 10 | 4.44 | 4.51 | ≤ 4.30 | pEC50 (Human alphaherpesvirus 3 [10]): 5.51; pEC50 (Human alphaherpesvirus 3 [11]): 5.21; pEC50 (Human betaherpesvirus 5 [12]): 4.54; pEC50 (Human betaherpesvirus 5 [13]): 4.74; pEC50 (Vaccinia virus): 4.42
CSc1ccc(-n2cc(-c3cn([C@H]4C[C@H](O)[C@@H](CO)O4)c(=O)[nH]c3=O)nn2)cc1 | inactive | inactive | inactive | inactive | inactive | inactive | inactive | inactive | inactive | inactive | inactive | inactive | 4.21 | 4.30 | 4.64 | 27 | > 230 | < 4.30 | < 4.30 | < 4.30 | pEC50 (Human alphaherpesvirus 3 [10]): 4.57; pEC50 (Human alphaherpesvirus 3 [11]): < 4.30; pEC50 (Human betaherpesvirus 5 [12]): < 4.30; pEC50 (Human betaherpesvirus 5 [13]): < 4.30; pEC50 (Vaccinia virus): < 4.30
